According to ChEMBL document CHEMBL4130611, “Serpulanines A to C, N-Oxidized Tyrosine Derivatives Isolated from the Sri Lankan Fungus Serpula sp.: Structure Elucidation, Synthesis, and Histone Deacetylase Inhibition” (J Nat Prod, 2018):
pIC50: −log10 of the molar value. Activity calls are given as the source filed them. No cut-off for these calls is given here.

Assays:
A9 [1] = experiment: (§1) Inhibition of class 1 HDAC in mouse A9 cells after 30 mins by luminescent assay; type: cell-based
[2] = as §1; type: cell-based
A9 [3] = experiment: (§2) Inhibition of class 2 HDAC in mouse A9 cells after 30 mins by luminescent assay; type: cell-based
[4] = as §2; type: cell-based
[5] = target: T1, Protein deacetylase HDAC6 (Homo sapiens) (UniProt Q9UBN7); experiment: Inhibition of human HDAC6 at 330 uM by HDAC-Glo1/2 luminescent assay relative to control
T1 sequence (whole entry): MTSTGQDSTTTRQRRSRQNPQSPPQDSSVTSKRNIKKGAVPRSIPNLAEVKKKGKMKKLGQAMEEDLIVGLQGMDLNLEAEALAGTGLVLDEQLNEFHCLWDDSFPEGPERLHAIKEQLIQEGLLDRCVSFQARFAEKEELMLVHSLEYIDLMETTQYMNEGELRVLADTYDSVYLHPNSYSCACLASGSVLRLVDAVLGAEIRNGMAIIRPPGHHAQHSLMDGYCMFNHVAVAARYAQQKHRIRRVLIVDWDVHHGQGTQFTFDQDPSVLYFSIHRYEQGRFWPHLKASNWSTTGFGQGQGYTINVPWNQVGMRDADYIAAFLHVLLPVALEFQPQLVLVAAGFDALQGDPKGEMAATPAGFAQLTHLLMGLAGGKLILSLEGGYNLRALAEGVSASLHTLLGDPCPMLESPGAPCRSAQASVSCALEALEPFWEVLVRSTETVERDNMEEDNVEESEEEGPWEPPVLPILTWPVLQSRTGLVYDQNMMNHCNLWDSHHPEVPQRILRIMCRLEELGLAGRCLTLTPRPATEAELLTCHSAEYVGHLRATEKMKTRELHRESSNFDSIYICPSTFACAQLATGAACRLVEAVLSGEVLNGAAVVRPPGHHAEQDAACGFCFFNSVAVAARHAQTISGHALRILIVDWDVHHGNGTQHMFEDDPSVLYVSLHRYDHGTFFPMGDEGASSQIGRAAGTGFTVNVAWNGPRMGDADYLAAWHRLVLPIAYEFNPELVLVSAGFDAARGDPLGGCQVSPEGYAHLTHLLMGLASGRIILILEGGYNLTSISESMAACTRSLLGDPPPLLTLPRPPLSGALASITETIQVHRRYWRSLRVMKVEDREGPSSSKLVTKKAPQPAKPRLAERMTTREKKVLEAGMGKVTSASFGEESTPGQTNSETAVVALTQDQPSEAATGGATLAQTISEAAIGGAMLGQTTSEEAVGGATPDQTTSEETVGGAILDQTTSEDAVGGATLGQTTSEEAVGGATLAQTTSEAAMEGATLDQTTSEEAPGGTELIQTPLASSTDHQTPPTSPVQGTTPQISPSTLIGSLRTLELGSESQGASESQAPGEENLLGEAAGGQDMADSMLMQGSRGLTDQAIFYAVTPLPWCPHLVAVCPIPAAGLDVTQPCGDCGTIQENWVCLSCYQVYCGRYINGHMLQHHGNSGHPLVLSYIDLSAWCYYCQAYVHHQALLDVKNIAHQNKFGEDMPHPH

[6] = target: Histone deacetylase 9 (Homo sapiens) (UniProt Q9UKV0); experiment: Inhibition of human HDAC9 at 330 uM by HDAC-Glo1/2 luminescent assay
Chain of Histone deacetylase 9 (Homo sapiens) (Q9UKV0 whole entry): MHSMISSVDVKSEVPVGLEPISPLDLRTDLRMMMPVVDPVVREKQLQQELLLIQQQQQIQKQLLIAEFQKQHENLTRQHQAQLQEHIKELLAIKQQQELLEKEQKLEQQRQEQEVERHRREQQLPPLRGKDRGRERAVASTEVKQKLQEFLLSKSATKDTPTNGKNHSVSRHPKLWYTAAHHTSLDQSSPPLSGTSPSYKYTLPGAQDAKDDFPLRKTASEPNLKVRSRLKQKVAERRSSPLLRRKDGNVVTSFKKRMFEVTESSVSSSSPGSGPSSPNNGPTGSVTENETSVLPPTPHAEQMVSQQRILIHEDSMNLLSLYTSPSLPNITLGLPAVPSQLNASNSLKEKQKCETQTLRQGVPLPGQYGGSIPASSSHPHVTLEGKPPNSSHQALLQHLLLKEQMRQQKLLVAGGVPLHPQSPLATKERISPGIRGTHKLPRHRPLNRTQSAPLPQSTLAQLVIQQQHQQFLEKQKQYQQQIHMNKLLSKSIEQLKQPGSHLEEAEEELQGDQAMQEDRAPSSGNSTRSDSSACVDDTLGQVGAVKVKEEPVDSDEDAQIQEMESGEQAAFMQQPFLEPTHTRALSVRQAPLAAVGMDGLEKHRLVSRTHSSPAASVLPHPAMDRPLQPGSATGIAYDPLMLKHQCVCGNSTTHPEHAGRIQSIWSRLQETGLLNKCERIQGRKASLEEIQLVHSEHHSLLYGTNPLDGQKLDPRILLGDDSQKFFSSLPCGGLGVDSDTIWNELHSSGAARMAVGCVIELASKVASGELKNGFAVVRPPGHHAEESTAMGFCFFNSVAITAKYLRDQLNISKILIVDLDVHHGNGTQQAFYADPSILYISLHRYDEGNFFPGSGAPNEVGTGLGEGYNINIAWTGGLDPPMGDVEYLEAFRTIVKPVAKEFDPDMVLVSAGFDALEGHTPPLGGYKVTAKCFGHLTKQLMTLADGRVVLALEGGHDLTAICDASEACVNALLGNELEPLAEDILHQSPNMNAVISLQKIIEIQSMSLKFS

pIC50 [2]	pIC50 [4]	inhibition [5] [%]	inhibition [6]	Structure (SMILES)	inhibition (A9 [1])	inhibition (A9 [3])
5.15	5.15			CC(C)=CCOc1ccc(C/C(=N\O)C(=O)NO)cc1	Dose-dependent effect	Dose-dependent effect
		69	inactive	COC(=O)C(Cc1ccc(OCC=C(C)C)cc1)N(O)C(=O)/C(C)=N/O (stereo unspecified)		
